One may read the IC50 as the concentration that gives 50% inhibition. A lower IC50 goes with higher potency.

Where a name gives a salt, the structure may show the parent alone.

Data on 36 compounds can be found in BindingDB's records for doi:10.1021/jm00078a018 (Merck Research Laboratories, 1994).

The nature of the assay: Inhibition of binding of [125I]-CCK-8 to the cholecystokinin type B receptor.

In the case of `CN1C(=O)C(NC(=O)Nc2cccc(F)c2)N=C(c2ccccc2)c2ccccc21` (stereo unspecified) [1-(3-Fluoro-phenyl)-3-(1-methyl-2-oxo-5-phenyl-2,3-dihydro-1H-benzo[e][1,4]diazepin-3-yl)-urea], the IC50 is 54 nM.

`COc1cccc(NC(=O)NC2N=C(c3ccccc3)c3ccccc3N(C)C2=O)c1` (stereo unspecified) [1-(3-Methoxy-phenyl)-3-(1-methyl-2-oxo-5-phenyl-2,3-dihydro-1H-benzo[e][1,4]diazepin-3-yl)-urea] had an IC50 of 3 nM.

Regarding `COc1cccc(NC(=O)NC2N=C(c3ccccc3)c3ccccc3N(CC(=O)N3CCCC3)C2=O)c1` (stereo unspecified) [1-(3-Methoxy-phenyl)-3-[2-oxo-1-(2-oxo-2-pyrrolidin-1-yl-ethyl)-5-phenyl-2,3-dihydro-1H-benzo[e][1,4]diazepin-3-yl]-urea], the IC50 was 0.24 nM.

With `COc1cccc(NC(=O)NC2N=C(c3ccccc3)c3ccccc3N(CC(=O)N3CCN(C)CC3)C2=O)c1` (stereo unspecified) [1-(3-Methoxy-phenyl)-3-{1-[2-(4-methyl-piperazin-1-yl)-2-oxo-ethyl]-2-oxo-5-phenyl-2,3-dihydro-1H-benzo[e][1,4]diazepin-3-yl}-urea], the IC50 came out at 4.4 nM.

Consider `CN1C(=O)C(NC(=O)Nc2ccc(Br)cc2)N=C(c2ccccc2)c2ccccc21` (stereo unspecified) [1-(4-Bromo-phenyl)-3-(1-methyl-2-oxo-5-phenyl-2,3-dihydro-1H-benzo[e][1,4]diazepin-3-yl)-urea], for which the IC50 stood at 48 nM.

`O=C(Nc1ccc(Cl)cc1)NC1N=C(c2ccccc2)c2ccccc2NC1=O` (stereo unspecified) [1-(4-Chloro-phenyl)-3-(2-oxo-5-phenyl-2,3-dihydro-1H-benzo[e][1,4]diazepin-3-yl)-urea] yielded an IC50 of 270 nM.

Take `CN1C(=O)[C@H](NC(=O)Nc2ccc(Cl)cc2)N=C(c2ccccc2)c2ccccc21` [1-(4-Chloro-phenyl)-3-((R)-1-methyl-2-oxo-5-phenyl-2,3-dihydro-1H-benzo[e][1,4]diazepin-3-yl)-urea]: the IC50 is 20 nM.

Turning to `CN1C(=O)[C@@H](NC(=O)Nc2ccc(Cl)cc2)N=C(c2ccccc2)c2ccccc21` [1-(4-Chloro-phenyl)-3-((S)-1-methyl-2-oxo-5-phenyl-2,3-dihydro-1H-benzo[e][1,4]diazepin-3-yl)-urea], the IC50 was determined as 1100 nM.

In turn, `O=C(Nc1ccc(Cl)cc1)NC1N=C(c2ccccc2)c2ccccc2N(C[C@@H](O)CO)C1=O` (stereo partly specified) [1-(4-Chloro-phenyl)-3-[1-(2,3-dihydroxy-propyl)-2-oxo-5-phenyl-2,3-dihydro-1H-benzo[e][1,4]diazepin-3-yl]-urea] yielded an IC50 of 104 nM.

Take `O=C(Nc1ccc(Cl)cc1)NC1N=C(c2ccccc2)c2ccccc2N(C[C@@H](O)CN2CCCC2)C1=O` (stereo partly specified) [1-(4-Chloro-phenyl)-3-[1-(2-hydroxy-3-pyrrolidin-1-yl-propyl)-2-oxo-5-phenyl-2,3-dihydro-1H-benzo[e][1,4]diazepin-3-yl]-urea]: the IC50 is 300 nM.

In turn, `CCN(CC)C[C@H](O)CN1C(=O)C(NC(=O)Nc2ccc(Cl)cc2)N=C(c2ccccc2)c2ccccc21` (stereo partly specified) [1-(4-Chloro-phenyl)-3-[1-(3-diethylamino-2-hydroxy-propyl)-2-oxo-5-phenyl-2,3-dihydro-1H-benzo[e][1,4]diazepin-3-yl]-urea] returned an IC50 of 410 nM.

In turn, `O=C(Nc1ccc(Cl)cc1)NC1N=C(c2ccccc2)c2ccccc2N(Cc2nnn[nH]2)C1=O` (stereo unspecified) [1-(4-Chloro-phenyl)-3-[2-oxo-5-phenyl-1-(1H-tetrazol-5-ylmethyl)-2,3-dihydro-1H-benzo[e][1,4]diazepin-3-yl]-urea] showed an IC50 of 490 nM.

As to `CN1CCN(C(=O)CN2C(=O)C(NC(=O)Nc3ccc(Cl)cc3)N=C(c3ccccc3)c3ccccc32)CC1` (stereo unspecified) [1-(4-Chloro-phenyl)-3-{1-[2-(4-methyl-piperazin-1-yl)-2-oxo-ethyl]-2-oxo-5-phenyl-2,3-dihydro-1H-benzo[e][1,4]diazepin-3-yl}-urea], the IC50 came to 0.8 nM.

As to `CN1C(=O)C(NC(=O)Nc2ccc(F)cc2)N=C(c2ccccc2)c2ccccc21` (stereo unspecified) [1-(4-Fluoro-phenyl)-3-(1-methyl-2-oxo-5-phenyl-2,3-dihydro-1H-benzo[e][1,4]diazepin-3-yl)-urea], the IC50 came to 66 nM.

Regarding `COc1ccc(NC(=O)NC2N=C(c3ccccc3)c3ccccc3N(C)C2=O)cc1` (stereo unspecified) [1-(4-Methoxy-phenyl)-3-(1-methyl-2-oxo-5-phenyl-2,3-dihydro-1H-benzo[e][1,4]diazepin-3-yl)-urea], the IC50 was determined as 26 nM.

`CN1C(=O)C(NC(=O)Nc2ccc(N)nc2)N=C(c2ccccc2)c2ccccc21` (stereo unspecified) [1-(6-Amino-pyridin-3-yl)-3-(1-methyl-2-oxo-5-phenyl-2,3-dihydro-1H-benzo[e][1,4]diazepin-3-yl)-urea] showed a half-inhibitory concentration (IC50) of 500 nM.

`CN1C(=O)C(NC(=O)Nc2ccc(Cl)nc2)N=C(c2ccccc2)c2ccccc21` (stereo unspecified) [1-(6-Chloro-pyridin-3-yl)-3-(1-methyl-2-oxo-5-phenyl-2,3-dihydro-1H-benzo[e][1,4]diazepin-3-yl)-urea] came in with an IC50 of 46 nM.

For `COc1ccc(NC(=O)NC2N=C(c3ccccc3)c3ccccc3N(C)C2=O)cn1` (stereo unspecified) [1-(6-Methoxy-pyridin-3-yl)-3-(1-methyl-2-oxo-5-phenyl-2,3-dihydro-1H-benzo[e][1,4]diazepin-3-yl)-urea], the IC50 is 460 nM.

In turn, `CN1C(=O)C(NC(=O)Nc2ccc3c(c2)OCO3)N=C(c2ccccc2)c2ccccc21` (stereo unspecified) [1-Benzo[1,3]dioxol-5-yl-3-(1-methyl-2-oxo-5-phenyl-2,3-dihydro-1H-benzo[e][1,4]diazepin-3-yl)-urea] displayed an IC50 of 26 nM.

Regarding `CN1C(=O)C(NC(=O)NCc2ccccc2)N=C(c2ccccc2)c2ccccc21` (stereo unspecified) [1-Benzyl-3-(1-methyl-2-oxo-5-phenyl-2,3-dihydro-1H-benzo[e][1,4]diazepin-3-yl)-urea], the IC50 stood at 860 nM.

In the case of `CN1C(=O)C(NC(=O)Nc2cccc(-c3ccccc3)c2)N=C(c2ccccc2)c2ccccc21` (stereo unspecified) [1-Biphenyl-3-yl-3-(1-methyl-2-oxo-5-phenyl-2,3-dihydro-1H-benzo[e][1,4]diazepin-3-yl)-urea], the IC50 was determined as 112 nM.

Turning to `CN1C(=O)C(NC(=O)NC2CCCCC2)N=C(c2ccccc2)c2ccccc21` (stereo unspecified) [1-Cyclohexyl-3-(1-methyl-2-oxo-5-phenyl-2,3-dihydro-1H-benzo[e][1,4]diazepin-3-yl)-urea], the IC50 was 3000 nM.

Turning to `CN1C(=O)C(NC(=O)Nc2ccc3c(c2)CCC3)N=C(c2ccccc2)c2ccccc21` (stereo unspecified) [1-Indan-5-yl-3-(1-methyl-2-oxo-5-phenyl-2,3-dihydro-1H-benzo[e][1,4]diazepin-3-yl)-urea], the IC50 was found to be 2.7 nM.

Take `Cc1cccc(NC(=O)NC2N=C(c3ccccc3)c3ccccc3N(Cc3ncc[nH]3)C2=O)c1` (stereo unspecified) [1-[1-(1H-Imidazol-2-ylmethyl)-2-oxo-5-phenyl-2,3-dihydro-1H-benzo[e][1,4]diazepin-3-yl]-3-m-tolyl-urea]: the IC50 was 59 nM.

Compound `Cc1cccc(NC(=O)NC2N=C(c3ccccc3)c3ccccc3N(Cc3cnc[nH]3)C2=O)c1` (stereo unspecified) [1-[1-(1H-Imidazol-4-ylmethyl)-2-oxo-5-phenyl-2,3-dihydro-1H-benzo[e][1,4]diazepin-3-yl]-3-m-tolyl-urea] gave a half-maximal inhibitory concentration (IC50) of 7.9 nM.

Take `COc1cccc(NC(=O)NC2N=C(c3ccccc3)c3ccccc3N(CCN(C)C)C2=O)c1` (stereo unspecified) [1-[1-(2-Dimethylamino-ethyl)-2-oxo-5-phenyl-2,3-dihydro-1H-benzo[e][1,4]diazepin-3-yl]-3-(3-methoxy-phenyl)-urea]: the IC50 is 192 nM.

`Cc1cccc(NC(=O)NC2N=C(c3ccccc3)c3ccccc3N(CCN(C)C)C2=O)c1` (stereo unspecified) [1-[1-(2-Dimethylamino-ethyl)-2-oxo-5-phenyl-2,3-dihydro-1H-benzo[e][1,4]diazepin-3-yl]-3-m-tolyl-urea] gave an IC50 of 26 nM.

In turn, `Cc1cccc(NC(=O)NC2N=C(c3ccccc3)c3ccccc3N(CCO)C2=O)c1` (stereo unspecified) [1-[1-(2-Hydroxy-ethyl)-2-oxo-5-phenyl-2,3-dihydro-1H-benzo[e][1,4]diazepin-3-yl]-3-m-tolyl-urea] had an IC50 of 44 nM.

Consider `O=C(Nc1ccc(Cl)cc1)NC1N=C(c2ccccc2)c2ccccc2N(C[C@@H](O)CCl)C1=O` (stereo partly specified) [1-[1-(3-Chloro-2-hydroxy-propyl)-2-oxo-5-phenyl-2,3-dihydro-1H-benzo[e][1,4]diazepin-3-yl]-3-(4-chloro-phenyl)-urea], for which the IC50 came to 6 nM.

Take `Cc1cccc(NC(=O)NC2N=C(c3ccccc3)c3ccccc3N(Cc3nnc(C)[nH]3)C2=O)c1` (stereo unspecified) [1-[1-(5-Methyl-4H-[1,2,4]triazol-3-ylmethyl)-2-oxo-5-phenyl-2,3-dihydro-1H-benzo[e][1,4]diazepin-3-yl]-3-m-tolyl-urea]: the IC50 stood at 9.7 nM.

In turn, `CN1C(=O)C(NC(=O)NCc2cccc(C(C)(C)O)c2)N=C(c2ccccc2)c2ccccc21` (stereo unspecified) [1-[3-(1-Hydroxy-1-methyl-ethyl)-benzyl]-3-(1-methyl-2-oxo-5-phenyl-2,3-dihydro-1H-benzo[e][1,4]diazepin-3-yl)-urea] yielded an IC50 of 5.9 nM.

Regarding `CN1C(=O)C(NC(=O)NC(C)(C)C)N=C(c2ccccc2)c2ccccc21` (stereo unspecified) [1-tert-Butyl-3-(1-methyl-2-oxo-5-phenyl-2,3-dihydro-1H-benzo[e][1,4]diazepin-3-yl)-urea], the IC50 turned out to be 38000 nM.

As to `Cc1cccc(NC(=O)NC2N=C(c3ccccc3)c3ccccc3N(CC(=O)N3CCN(C)CC3)C2=O)c1` (stereo unspecified) [1-{1-[2-(4-Methyl-piperazin-1-yl)-2-oxo-ethyl]-2-oxo-5-phenyl-2,3-dihydro-1H-benzo[e][1,4]diazepin-3-yl}-3-m-tolyl-urea; hydrochloride], the IC50 is 3.5 nM.

For `Cc1cccc(NC(=O)NC2N=C(c3ccccc3)c3ccccc3N(CC(=O)ON3CCC[C@@H]3C(=O)O)C2=O)c1` (stereo partly specified) [1-{2-[2-Oxo-5-phenyl-3-(3-m-tolyl-ureido)-2,3-dihydro-benzo[e][1,4]diazepin-1-yl]-acetoxy}-pyrrolidine-2-carboxylic acid], the IC50 was 130 nM.

`Cc1cccc(NC(=O)NC2N=C(c3ccccc3)c3ccccc3N(CC(=O)Nc3ccncc3)C2=O)c1` (stereo unspecified) [2-[2-Oxo-5-phenyl-3-(3-m-tolyl-ureido)-2,3-dihydro-benzo[e][1,4]diazepin-1-yl]-N-pyridin-4-yl-acetamide]: the IC50 turned out to be 48 nM.

Consider `Cc1ccc(NC(=O)NC2N=C(c3ccccc3)c3ccccc3N(CC(=O)Nc3ccncc3)C2=O)cc1` (stereo unspecified) [2-[2-Oxo-5-phenyl-3-(3-p-tolyl-ureido)-2,3-dihydro-benzo[e][1,4]diazepin-1-yl]-N-pyridin-4-yl-acetamide], for which the IC50 worked out at 190 nM.
